One series concerns MCF-7, clone WS8, cells. Nature of the series: MCF-7 cell proliferation assay of estrogenic agonist activity. Particulars: logarithmic (base 10) Relative Proliferative Effect in MCF-7 assay; expected or measured values. The series is classed as cell-based, human. From the text:
As used herein, the terms “estrogenic agonist activity” or “estrogenic activity” refer to the ability of a compound to mimic hormone-like activity through interaction with an endogenous estrogen receptor, typically an endogenous human estrogen receptor. […] The MCF-7 assay uses MCF-7, clone WS8, cells to measure whether and to what extent a substance induces cell proliferation via estrogen receptor (ER)-mediated pathways. The method is described in “Test Method Nomination: MCF-7 Cell Proliferation Assay of Estrogenic agonist activity” submitted for validation by CertiChem, Inc. to the National Toxicology Program Interagency Center for the Evaluation of Alternative Toxicological Methods (NICEA™) on Jan. 19, 2006 (available online at http://iccvam.niehs.nih.gov/methods/endocrine/endodocs/SubmDoc.pdf). As a brief summary of the assay, MCF-7, clone WS8, cells are maintained at 37° C. in RMPI (or Roswell Park Memorial Institute medium) containing Phenol Red (e.g., GIBCO Catalog Number 11875119) and supplemented with the indicated additives for routine culture. An aliquot of cells maintained at 37° C. are grown for 2 days in phenol-free media containing 5% charcoal stripped fetal bovine serum in a 25 cm^2 tissue culture flask. Using a robotic dispenser such as an epMotion 5070 unit, MCF-7 cells are then seeded at 400 cells per well in 0.2 ml of hormone-free culture medium in Corning 96-well plates. The cells are adapted for 3 days in the hormone-free culture medium prior to adding the chemical to be assayed for estrogenic agonist activity. The media containing the test chemical is replaced daily for 6 days. At the end of the 7-day exposure to the test chemical, the media is removed, the wells are washed once with 0.2 ml of HBSS (Hanks' Balanced Salt Solution), and then assayed to quantify amounts of DNA per well using a micro-plate modification of the Burton diphenylamine (DPA) assay, which is used to calculate the level of cell proliferation.
RPE is the ratio between the EC50 of the test chemical and the EC50 of the control substance 17-beta estradiol times 100, where EC50 is “effective concentration 50%” or half-maximum stimulation concentration for cell proliferation measured as total DNA in the MCF-7 assay.
Tables 1 and 2 provided below include some compounds and their expected or measured logarithmic RPE values in the MCF-7 assay.

In another series the target is T1, estrogen receptor (Homo sapiens, UniProt P03372).
T1 sequence (P03372 1-595): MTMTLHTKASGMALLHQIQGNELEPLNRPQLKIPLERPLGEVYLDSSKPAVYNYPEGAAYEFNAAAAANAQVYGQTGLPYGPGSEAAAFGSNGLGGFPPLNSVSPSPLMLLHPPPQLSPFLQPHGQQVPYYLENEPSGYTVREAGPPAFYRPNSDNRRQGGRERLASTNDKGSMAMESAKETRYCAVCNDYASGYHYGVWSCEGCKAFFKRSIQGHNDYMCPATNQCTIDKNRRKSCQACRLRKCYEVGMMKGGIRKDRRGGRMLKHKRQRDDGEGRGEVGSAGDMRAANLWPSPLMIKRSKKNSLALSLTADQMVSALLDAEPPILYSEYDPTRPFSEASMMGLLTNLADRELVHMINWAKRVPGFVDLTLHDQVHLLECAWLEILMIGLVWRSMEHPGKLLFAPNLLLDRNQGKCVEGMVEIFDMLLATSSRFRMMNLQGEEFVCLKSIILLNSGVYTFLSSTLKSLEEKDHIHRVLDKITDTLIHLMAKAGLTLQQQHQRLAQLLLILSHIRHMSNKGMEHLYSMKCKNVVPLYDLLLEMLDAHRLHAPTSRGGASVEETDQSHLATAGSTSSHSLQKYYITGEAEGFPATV
The experiment in a line: suitable in vitro assay of estrogenic agonist activity correlated to the MCF-7 assay. Particulars: suitable in vitro assay correlated to MCF-7 assay. The source says: While not intending to be bound by any theory, it is believed that the positioning of one or more R^1 groups at an ortho position relative to the oxygen atom depicted in Formulas (I) and (IA) may be particularly beneficial in reducing or eliminating estrogenic agonist activity.

A short description of series [1]: Gel-time comparison of two-part epoxy compositions with curing agents. The series is classed as physicochemical. The settings on record: for Difference in gel time: TMBPFDGE minus BADGE; for Gel time: 1:1 stoichiometric mix, 100 g; for Gel-Time % increase: from BADGE to TMBPFDGE
The method, then: Two-part epoxy compositions of bisphenol A diglycidyl ether (BADGE) (e.g., molecular weight of approximately 340 g/mol) and tetramethyl bisphenol F diglycidyl ether (TMBPFDGE) were prepared and mixed with various amine-based curing agents to compare the respective gel times of the compositions. The BADGE and TMBPFDGE monomer epoxides (e.g., molecular weight of approximately 340.4 g/mol and 368.6 g/mol respectively) were reduced to approximately 90% weight solids with xylene solvent. Gel times were measured using 100 g mass samples with a Paul N. Gardner Co, Inc. gel time recorder model S-5154. The gel-time values reported are in minutes, along with the difference between BADGE and TMBPFDGE compositions using the same curing agent, and the percent increase in gel time from BADGE to TMBPFDGE.

[2] abbreviates: curing agent ANACAMIDE 375A (polyamide).
Setting [3] is: curing agent ANACAMINE 503 (amidoamine).
The mark [4] stands for this setting: curing agent ANACAMINE 2393 (cycloaliphatic amine).
Setting [5] is: curing agent CARDOLITE 3040 (phenalkamide).
The mark [6] stands for this setting: curing agent CARDOLITE NC541 (phenalkamine).
Setting [7] is: curing agent GABEPRO GPM-830CB (mercaptan).
Where [8] appears, read: curing agent TETA, epoxy 90% solids in xylene.

Each structure is given as a SMILES string.

The results in this text go back to patent US12331224B2, “Two-part epoxy compositions for adherent coatings of storage articles” (SWIMC LLC, priority 2019, dated 2025).

With `Oc1ccc(Cc2ccc(O)cc2)cc1` [Bisphenol F], the “Log RPE” value with MCF-7, clone WS8, cells is on record as −2.
As to `CCCC(c1cc(C(C)(C)C)c(O)cc1C)c1cc(C(C)(C)C)c(O)cc1C` [4,4′-butylidenebis(2-t-butyl-5-methylphenol)], the estrogenic agonist activity entry at estrogen receptor is “do not exhibit appreciable estrogenic agonist activity”.
Same read-out and setting: the result for `Cc1cc(Cc2cc(C)cc(C(C)(C)C)c2O)c(O)c(C(C)(C)C)c1` [2,2′-methylenebis(4-methyl-6-t-butylphenol)] reads “do not exhibit appreciable estrogenic agonist activity”.
Turning to `Cc1cc(Cc2cc(C)c(OCC3CO3)c(C)c2)cc(C)c1OCC1CO1` (centres unmarked) [TMBPFDGE, tetramethyl bisphenol F diglycidyl ether], the “Difference in gel time” value in series [1] (setting [2]) was determined as 454 min; in series [1] (setting [3]) it was 469 min; in series [1] (setting [4]), 343 min; in series [1] (setting [5]), 370 min; in series [1] (setting [6]) it was 206 min; in series [1] (setting [7]) it was 82 min. Also, the “Difference in gel time” value in series [1] (curing agent PACM) is listed as 510 min; in series [1] (curing agent TETA) it was 333 min. The Gel time in series [1] (setting [2]) was determined as 766 min; in series [1] (setting [3]), 680 min; in series [1] (setting [4]), 398 min; in series [1] (setting [5]) it was 568 min; in series [1] (setting [6]) it was 292 min; in series [1] (setting [7]) it was 98 min. For the same compound, the Gel time in series [1] (curing agent PACM) was 785 min; in series [1] (setting [8]), 407 min. The Gel-Time % increase worked out at 146% in series [1] (setting [2]); 222% in series [1] (setting [3]); 624% in series [1] (setting [4]); 187% in series [1] (setting [5]); 240% in series [1] (setting [6]); 513% in series [1] (setting [7]). Further, the values for the Gel-Time % increase in series [1] (curing agent PACM) and in series [1] (curing agent TETA) were 185% and 450%, respectively.
As for `CC(C)(C)c1cc(O)c(C(C)(C)C)cc1O` [2,5-di-t-butylhydroquinone], on estrogen receptor, the estrogenic agonist activity entry was “do not exhibit appreciable estrogenic agonist activity”.
Still for that read-out and setting: the result for `CC(C)(C)c1cc(Cc2cc(C(C)(C)C)c(O)c(C(C)(C)C)c2)cc(C(C)(C)C)c1O` [4,4′-methylenebis(2,6-di-t-butylphenol)] reads “do not exhibit appreciable estrogenic agonist activity”.
As for `CC(C)(c1ccc(OCC2CO2)cc1)c1ccc(OCC2CO2)cc1` (centres unmarked) [BADGE, bisphenol A diglycidyl ether, reference compound], the Gel time amounted to 312 min in series [1] (setting [2]); 211 min in series [1] (setting [3]); 55 min in series [1] (setting [4]); 198 min in series [1] (setting [5]); 86 min in series [1] (setting [6]); 16 min in series [1] (setting [7]). The Gel time in series [1] (curing agent PACM) is on record as 275 min; in series [1] (setting [8]), 74 min.
In the case of `C[C@]12CC[C@@H]3c4ccc(O)cc4CC[C@H]3[C@@H]1CC[C@@H]2O` [17β-estradiol], the “Log RPE” value in the series on MCF-7, clone WS8, cells is reported as 2.00.
As to `O=S(=O)(c1ccc(O)cc1)c1ccc(O)cc1` [Bisphenol S], the “Log RPE” value in the series on MCF-7, clone WS8, cells is given as −2.
`Cc1cc(Cc2cc(C)c(O)c(C)c2)cc(C)c1O` [4,4′-methylenebis(2,6-dimethylphenol)]: the estrogenic agonist activity entry at estrogen receptor is reported as “do not exhibit appreciable estrogenic agonist activity”.
As for `Cc1cc(Cc2cc(C)cc(C3(C)CCCCC3)c2O)c(O)c(C2(C)CCCCC2)c1` [2,2′-Methylenebis(6-(1-methylcyclohexyl)-4-methylphenol], the “Log RPE” value in the series with MCF-7, clone WS8, cells is on record as “less than −4”.
